In this experiment the target is T1, glucan synthase (GS) (Candida albicans, UniProt O13428).
T1 construct: Extraction of GS activity from membranes was performed at a protein concentration of 5 mg/mL in extraction buffer; endogenous in cells; host or cells: Candida albicans MY1055 (membrane fraction, detergent extraction, product entrapment)
T1 sequence (O13428 1-1897): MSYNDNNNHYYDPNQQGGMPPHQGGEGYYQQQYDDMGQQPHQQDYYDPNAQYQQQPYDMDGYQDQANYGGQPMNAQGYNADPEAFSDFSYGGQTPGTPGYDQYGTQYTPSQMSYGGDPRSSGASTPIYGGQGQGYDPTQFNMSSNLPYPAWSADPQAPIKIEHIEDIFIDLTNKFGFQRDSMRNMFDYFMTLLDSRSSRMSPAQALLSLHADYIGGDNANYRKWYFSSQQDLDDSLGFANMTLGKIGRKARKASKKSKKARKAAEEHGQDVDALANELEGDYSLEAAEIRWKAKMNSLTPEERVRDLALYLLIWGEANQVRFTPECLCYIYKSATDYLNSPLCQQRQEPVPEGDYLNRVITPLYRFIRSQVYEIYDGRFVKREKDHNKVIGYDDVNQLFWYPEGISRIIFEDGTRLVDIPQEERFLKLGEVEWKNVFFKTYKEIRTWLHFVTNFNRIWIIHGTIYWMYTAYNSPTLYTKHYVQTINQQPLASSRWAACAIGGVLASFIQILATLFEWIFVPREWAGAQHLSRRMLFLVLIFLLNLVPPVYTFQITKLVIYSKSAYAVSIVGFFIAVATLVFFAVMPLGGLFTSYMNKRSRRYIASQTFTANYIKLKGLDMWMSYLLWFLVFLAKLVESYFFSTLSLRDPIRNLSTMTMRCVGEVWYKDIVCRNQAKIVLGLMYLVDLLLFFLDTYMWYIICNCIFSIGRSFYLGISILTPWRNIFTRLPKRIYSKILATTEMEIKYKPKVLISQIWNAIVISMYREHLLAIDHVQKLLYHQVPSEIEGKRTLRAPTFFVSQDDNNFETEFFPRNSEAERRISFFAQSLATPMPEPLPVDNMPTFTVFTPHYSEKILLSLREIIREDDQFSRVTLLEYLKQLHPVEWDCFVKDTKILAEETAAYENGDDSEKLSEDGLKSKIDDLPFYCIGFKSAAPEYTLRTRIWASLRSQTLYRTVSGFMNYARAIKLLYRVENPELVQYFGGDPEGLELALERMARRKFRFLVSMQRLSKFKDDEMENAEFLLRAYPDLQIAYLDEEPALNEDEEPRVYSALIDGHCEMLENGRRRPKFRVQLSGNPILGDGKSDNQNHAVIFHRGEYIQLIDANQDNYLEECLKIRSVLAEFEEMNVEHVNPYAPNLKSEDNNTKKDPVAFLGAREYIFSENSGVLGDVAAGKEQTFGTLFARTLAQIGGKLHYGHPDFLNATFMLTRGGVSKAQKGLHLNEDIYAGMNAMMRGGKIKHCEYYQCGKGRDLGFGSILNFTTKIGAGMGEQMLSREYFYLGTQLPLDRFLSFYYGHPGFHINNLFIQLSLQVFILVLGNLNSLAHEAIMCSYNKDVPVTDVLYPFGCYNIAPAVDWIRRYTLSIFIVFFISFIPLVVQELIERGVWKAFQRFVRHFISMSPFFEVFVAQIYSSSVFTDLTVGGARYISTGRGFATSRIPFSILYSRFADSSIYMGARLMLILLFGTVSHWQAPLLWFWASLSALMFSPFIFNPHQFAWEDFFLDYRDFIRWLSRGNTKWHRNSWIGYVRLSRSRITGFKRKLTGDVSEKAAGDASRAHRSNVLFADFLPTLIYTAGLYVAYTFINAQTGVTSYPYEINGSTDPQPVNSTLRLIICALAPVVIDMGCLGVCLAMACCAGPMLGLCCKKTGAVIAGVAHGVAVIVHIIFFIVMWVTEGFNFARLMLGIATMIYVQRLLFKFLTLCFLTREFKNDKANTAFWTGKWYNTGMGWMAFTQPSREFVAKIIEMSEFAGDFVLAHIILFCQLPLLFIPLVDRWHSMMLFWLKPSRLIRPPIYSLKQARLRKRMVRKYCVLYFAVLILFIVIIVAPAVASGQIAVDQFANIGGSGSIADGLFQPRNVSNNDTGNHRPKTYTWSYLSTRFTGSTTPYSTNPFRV
T1 sequence (O42825 1-195 partner limits assumed): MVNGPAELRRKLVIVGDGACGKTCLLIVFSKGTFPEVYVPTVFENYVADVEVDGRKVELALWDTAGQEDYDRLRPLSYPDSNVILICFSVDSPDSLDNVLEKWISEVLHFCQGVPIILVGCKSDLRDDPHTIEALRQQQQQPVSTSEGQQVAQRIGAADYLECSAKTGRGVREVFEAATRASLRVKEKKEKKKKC
Nature of the experiment: Glucan synthase inhibition (polymerization assay, 96-well). Conditions: glucan synthase prepared from Candida albicans MY1055; 60 min incubation at 22° C.; read-out: Candida Albicans GS IC50 (ng/mL) (converted). Type of experiment: biochemical. How it is done: The in vitro evaluation of glucan synthase inhibitory activity of compounds was measured in a polymerization assay in 96-well format. Each well contained 100 μL of ^3H-UDPG at 0.5 mM (6000 to 8000 dpm/nmol), 50 mM HEPES pH 7.5 (Sigma), 10% w/v glycerol (Sigma), 1.5 mg/mL bovine serum albumin (Sigma A 9647. Lot 44H0190), 25 mM KF (Fisher), 1 mM EDTA (Gibco ULTRAPURE), 25 μM GTP-γ-S, enzyme sufficient to give 3 to 6 nmoles incorporation during the 60 min incubation at 22° C., and test compound added from wells in 3-fold serial dilutions in 100% DMSO (1 μL/well). The reaction was stopped by the addition of 100 μL of 20% trichloroacetic acid. Plates were chilled for a minimum of 10 min, and precipitated glucan collected by filtration on GF/C plates (Packard UNIFILTER®-96), washed with 5 cycles of water (about 1 mL/well each cycle) using a Packard FILTERMATE HARVESTER. 40 μL/well scintillation fluid (Packard ULTIMA GOLD TM-XR) was added and the sealed plates counted in a WALLAC BETA counter in top-counting mode at an efficiency of approximately 40%.
Stock solutions were stored at 10 mg/mL in DMSO at −20° C. For each new enzyme preparation, the initial titration performed started at 1 mg/mL, which was prepared by making a 10-fold dilution in DMSO (5 μL to 50 μL). 40 μL of this stock was placed in column 12 of a round-bottomed 96-well microtiter plate. 40 μL DMSO was added to columns 1 to 11 in the same row and ten 3-fold serial dilutions performed, by transferring 20 μL from column 12 to column 11 etc., with 4 mixings before each transfer. No test compound was transferred to from column 2 to column 1. Duplicate aliquots of 1 μL of all 12 dilutions were then transferred to the side walls of a 96-well Bioblock 1.1 mL plate (Fisher brand) to create two rows. Graphs of the primary data were created in PRISM software (the average of two determinations) using PRISM's curve fitting program (sigmoidal dose response non-linear regression). The amount of compound required to inhibit glucan synthase activity by 50% in this assay (IC50-ng/mL) was calculated.
Routine analysis was performed with glucan synthase (GS) prepared from Candida albicans MY1055 by the following procedure: MY1055 was grown in 10 liters YPD medium (10 g yeast extract, 20 g tryptone, 20 g glucose per liter) with vigorous shaking at 30° C., to early stationary phase. Cells were harvested by centrifugation, the pellet was washed and frozen at −70° C. until breakage. Thawed pellets were shaken with an equal volume of breakage buffer (50 mM HEPES pH 7.4, 10% glycerol, 1 mM EDTA, 1 mM PMSF, 1 mM DTT) and 4 times their weight of 0.5 mm acid washed glass beads for 2 hours at 4° C. Extent of breakage was assessed visually at 40× magnification. After low speed centrifugation to remove cell debris, the supernatant was centrifuged at 100,000×g for 60 min. to separate membranes plus ribosomes from cytoplasmic components. Membranes were further washed two additional times with breakage buffer using the same centrifugation conditions and finally suspended in breakage buffer at 25 to 30 mg/mL protein (Biorad) for storage at −70° C. Extraction of GS activity from membranes was performed at a protein concentration of 5 mg/mL in extraction buffer (50 mM NaPO4 pH 7.5, 0.1 M KCl, 0.1M Na citrate, 20% glycerol, 5 μM GTP-γ-S, 1 mM DTT, 1 mM PMSF, 3 μg/mL pepstatin) plus 0.25% W1 by gentle mixing at 4° C. for 60 min, followed by centrifugation at 100,000×g for 60 min. After centrifugation, clear supernatant was removed from a pellet consisting of a hard layer usually with small amounts of gelatinous unextracted membranes above it.
Trapping was initiated immediately by 5-fold dilution in trapping buffer (50 mM HEPES pH 7.5, 10 mM KF, 1 mM EDTA, 2 mg/mL BSA) plus 2.5 mM UDPG and 10 μM GTP-γ-S. After incubation at 25° C. for 60 to 90 minutes, glucan was harvested by low speed centrifugation (3,000×g, 10 min). […]
With `CC(C)[C@@H](C)[C@@]1(C)CC[C@]2(C)[C@H]3CC[C@@H]4[C@@]5(COC[C@@]4(C)[C@@H](OC[C@](C)(N)C(C)C)[C@H](n4nnc(CO)n4)C5)C3=CC[C@@]2(C)[C@@H]1C(=O)O` [Example 43B, (1S,4aR,6aS,7R,8R,10aR,10bR,12aR,14R,15R)-15-[[(2R)-2-amino-2,3-dimethylbutyl]oxy]-8-[(1R)-1,2-dimethylpropyl]-14-[5-(hydroxymethyl)-2H-tetrazol-2-yl]-1,6,6a,7,8,9,10,10a,10b,11,12,12a-dodecahydro-1,6a,8,10a-tetramethyl-4H-1,4a-propano-2H-phenanthro[1,2-c]pyran-7-carboxylic acid], the IC50 is 85.1 nM.

`CC(C)C(C(C)O[C@H]1[C@H](n2nnc(N)n2)C[C@@]23COC[C@]1(C)[C@@H]2CC[C@H]1C3=CC[C@@]2(C)[C@H](C(=O)O)[C@@](C)([C@H](C)C(C)C)CC[C@]12C)N(C)C` (stereo partly drawn) [Example 49, (1S,4aR,6aS,7R,8R,10aR,10bR,12aR,14R,15R)-14-(5-amino-2H-tetrazol-2-yl)-15-[2-(dimethylamino)-1,3-dimethylbutoxy]-8-[(1R)-1,2-dimethylpropyl]-1,6,6a,7,8,9,10,10a,10b,11,12,12a-dodecahydro-1,6a,8,10a-tetramethyl-4H-1,4a-propano-2H-phenanthro[1,2-c]pyran-7-carboxylic acid]: the IC50 was 26.4 nM.

Regarding `CC(C)[C@@H](C)[C@@]1(C)CC[C@]2(C)[C@H]3CC[C@@H]4[C@@]5(COC[C@@]4(C)[C@@H](OC[C@@](C)(N)C(C)C)[C@H](n4nnc(N)n4)C5)C3=CC[C@@]2(C)[C@@H]1C(N)=O` [Example 51, (1S,4aR,6aS,7R,8R,10aR,10bR,12aR,14R,15R)-15-[[(2S)-2-amino-2,3-dimethylbutyl]oxy]-14-(5-amino-2H-tetrazol-2-yl)-8-[(1 R)-1,2-dimethylpropyl]-1,6,6a,7,8,9,10,10a,10b,11,12,12a-dodecahydro-1,6a,8,10a-tetramethyl-4H-1,4a-propano-2H-phenanthro[1,2-c]pyran-7-carboxamide], the IC50 was 3.06 nM.

`CN[C@@](C)(CO[C@H]1[C@H](n2nnc(N)n2)C[C@@]23COC[C@]1(C)[C@@H]2CC[C@H]1C3=CC[C@@]2(C)[C@H](C(=O)O)[C@@](C)([C@H](C)C(C)C)CC[C@]12C)C(C)C` [Example 52, (1S,4aR,6aS,7R,8R,10aR,10bR,12aR,14R,15R)-14-(5-amino-2H-tetrazol-2-yl)-15-[[(2R)-2,3-dimethyl-2-(methylamino)butyl]oxy]-8-[(1R)-1,2-dimethylpropyl]-1,6,6a,7,8,9,10,10a,10b,11,12,12a-dodecahydro-1,6a,8,10a-tetramethyl-4H-1,4a-propano-2H-phenanthro[1,2-c]pyran-7-carboxylic acid]: the IC50 was 2.99 nM.

Consider `CCCN[C@@](C)(CO[C@H]1[C@H](n2nnc(N)n2)C[C@@]23COC[C@]1(C)[C@@H]2CC[C@H]1C3=CC[C@@]2(C)[C@H](C(=O)O)[C@@](C)([C@H](C)C(C)C)CC[C@]12C)C(C)C` [Example 55, (1S,4aR,6aS,7R,8R,10aR,10bR,12aR,14R,15R)-14-(5-amino-2H-tetrazol-2-yl)-15-[[(2R)-2,3-dimethyl-2-(propylamino)butyl]oxy]-8-[(1R)-1,2-dimethylpropyl]-1,6,6a,7,8,9,10,10a,10b,11,12,12a-dodecahydro-1,6a,8,10a-tetramethyl-4H-1,4a-propano-2H-phenanthro[1,2-c]pyran-7-carboxylic acid], for which the IC50 was 11.5 nM.

For `CC(C)N[C@@](C)(CO[C@H]1[C@H](n2nnc(N)n2)C[C@@]23COC[C@]1(C)[C@@H]2CC[C@H]1C3=CC[C@@]2(C)[C@H](C(=O)O)[C@@](C)([C@H](C)C(C)C)CC[C@]12C)C(C)C` [Example 57, (1S,4aR,6aS,7R,8R,10aR,10bR,12aR,14R,15R)-14-(5-amino-2H-tetrazol-2-yl)-15-[[(2R)-2,3-dimethyl-2-[(1-methylethyl)amino]butyl]oxy]-8-[(1R)-1,2-dimethylpropyl]-1,6,6a,7,8,9,10,10a,10b,11,12,12a-dodecahydro-1,6a,8,10a-tetramethyl-4H-1,4a-propano-2H-phenanthro[1,2-c]pyran-7-carboxylic acid], the IC50 is 8.61 nM.

As to `CC(C)[C@@H](C)[C@@]1(C)CC[C@]2(C)[C@H]3CC[C@@H]4[C@@]5(COC[C@@]4(C)[C@@H](OC[C@](C)(NCc4ccccc4)C(C)C)[C@H](n4nnc(N)n4)C5)C3=CC[C@@]2(C)[C@@H]1C(=O)O` [Example 61, (1S,4aR,6aS,7R,8R,10aR,10bR,12aR,14R,15R)-14-(5-amino-2H-tetrazol-2-yl)-15-[[(2R)-2,3-dimethyl-2-[(phenylmethyl)amino]butyl]oxy]-8-[(1R)-1,2-dimethylpropyl]-1,6,6a,7,8,9,10,10a,10b,11,12,12a-dodecahydro-1,6a,8,10a-tetramethyl-4H-1,4a-propano-2H-phenanthro[1,2-c]pyran-7-carboxylic acid], the IC50 was 10.7 nM.

With `CCCN(C)[C@](C)(CO[C@H]1[C@H](n2nnc(N)n2)C[C@@]23COC[C@]1(C)[C@@H]2CC[C@H]1C3=CC[C@@]2(C)[C@H](C(=O)O)[C@@](C)([C@H](C)C(C)C)CC[C@]12C)C(C)C` [Example 69, (1S,4aR,6aS,7R,8R,10aR,10bR,12aR,14R,15R)-14-(5-amino-2H-tetrazol-2-yl)-15-[[(2S)-2,3-dimethyl-2-(methylpropylamino)butyl]oxy]-8-[(1R)-1,2-dimethylpropyl]-1,6,6a,7,8,9,10,10a,10b,11,12,12a-dodecahydro-1,6a,8,10a-tetramethyl-4H-1,4a-propano-2H-phenanthro[1,2-c]pyran-7-carboxylic acid], the IC50 was 28.1 nM.

Turning to `CCCCN[C@](C)(CO[C@H]1[C@H](n2nnc(N)n2)C[C@@]23COC[C@]1(C)[C@@H]2CC[C@H]1C3=CC[C@@]2(C)[C@H](C(=O)O)[C@@](C)([C@H](C)C(C)C)CC[C@]12C)C(C)C` [Example 71, (1S,4aR,6aS,7R,8R,10aR,10bR,12aR,14R,15R)-14-(5-amino-2H-tetrazol-2-yl)-15-[[(2S)-2-(butylamino)-2,3-dimethylbutyl]oxy]-8-[(1R)-1,2-dimethylpropyl]-1,6,6a,7,8,9,10,10a,10b,11,12,12a-dodecahydro-1,6a,8,10a-tetramethyl-4H-1,4a-propano-2H-phenanthro[1,2-c]pyran-7-carboxylic acid], the IC50 was 12.7 nM.

As for `CCC[C@H](CO[C@H]1[C@H](n2nnc(N)n2)C[C@@]23COC[C@]1(C)[C@@H]2CC[C@H]1C3=CC[C@@]2(C)[C@H](C(=O)O)[C@@](C)([C@H](C)C(C)C)CC[C@]12C)N(C)C` [Example 77, (1S,4aR,6aS,7R,8R,10aR,10bR,12aR,14R,15R)-14-(5-amino-2H-tetrazol-2-yl)-15-[[(2R)-2-(dimethylamino)pentyl]oxy]-8-[(1R)-1,2-dimethylpropyl]-1,6,6a,7,8,9,10,10a,10b,11,12,12a-dodecahydro-1,6a,8,10a-tetramethyl-4H-1,4a-propano-2H-phenanthro[1,2-c]pyran-7-carboxylic acid], the IC50 is 20.9 nM.

The record behind these values is patent US8722727B2, “Antifungal agents” (Seynix, Inc., priority 2008, dated 2014).
